Test results from patent US8207203B2, “Pyridylisoxazole derivatives” (Aska Pharmaceutical Co., Ltd., priority 2006, dated 2012).

Experiments:
[1] = system: TNF-α production; assay: Measurement of TNF-α production-inhibiting action (LPS-stimulated THP-1 cells, ELISA); assay type: cell-based; conditions: Homo sapiens; test substance 100 nM; THP-1 cells with LPS, 2 hours' culture; TNF-α in supernatant by ELISA; read-out: TNF-α generation-inhibiting action (inhibition: rate: %, 100 nM)
Protocol: (1) Measurement of TNF-α Production-Inhibiting Action
THP-1, human-derived culture cells (purchased from Dainippon Pharmaceutical Co.), was suspended (1×10^5 cells/mL) in RPMI 1640 medium (10% fetal bovine serum, containing 100 units/mL of penicillin). The THP-1 cell suspension 1.6 mL was inoculated in a 24-well culture plate, to which further a solution of test substance as dissolved in RPMI 1640 medium to make the final concentration of the test substance 100 nM and 0.2 mL of LPS (E. coli 055: B5-derived, dissolved in RPMI 1640 medium, Difco) of 10 μg/mL in concentration were added, followed by 2 hours' culture under the conditions of 37° C. and 5% CO2. The supernatant which was obtained upon centrifuge (500×g, 5 minutes) was measured with ELISA (Amersham Biosciences, TNF-α Human, ELISA Biotrak System) to quantize TNF-α. The TNF-α production inhibition rate (%) at 100 nM of each test substance was calculated according to the following formula, […]

[2] = Measurement of the compounds' metabolic rate (human liver S9, LC/MS/MS); assay type: in vitro ADME; conditions: human liver S9 0.5 mg protein/mL, compound 1 μmol/L, NADPH generating system, pH7.4, 37° C.
Protocol: (2) Measurement of the Compounds' Metabolic Rate:
Each test compound was added to potassium phosphate buffer (50 mmol/L, pH7.4) containing NADPH generating system (comprising 3.3 mmol/L MgCl2, 3.3 mmol/L glucose 6-phosphate, 1.3 mmol/L β-NADP^+ and 0.4 unit/mL glucose 6-phosphate dehydrogenase) (in which occasion the final concentration was rendered 1 μmol/L) and incubated at 37° C. for 2 minutes. After the incubation, a suspension of human liver S9 (the supernatant fraction obtained by centrifuging comminuted human liver cell fluid at 9000×g) in potassium phosphate buffer was added to the system, to the final concentration of 0.5 mg protein/mL. This reaction mixture was incubated at 37° C. for 5 minutes, and to which 4 volume times the reaction mixture of acetonitrile was added, mixed, cooled with ice and centrifuged (2000×g, 10 minutes). A part of the supernatant was taken and analyzed by LC/MS/MS, to determine the remaining rate of unchanged substance in the reaction solution. The results are shown in the following Table A, concurrently with the measured results of TNF-α production-inhibiting action in (1) above.

percent of unchanged compound remaining after 5 min [2] [%] | Structure (SMILES) | inhibition at 0.1 µM [1] [%]
17.6 | Cc1cccc(-c2noc(NC(=O)CCc3ccccc3)c2-c2ccncc2)c1 [Example 103, 3-(3-Methylphenyl)-5-(3-phenylpropionylamino)-4-(4-pyridyl)-isoxazole] | 65.5
23.3 | Cc1cccc(-c2noc(NC(=O)CCc3ccccc3C)c2-c2ccncc2)c1 [Example 106, 3-(3-Methylphenyl)-5-[(2-methylphenyl)propionylamino]-4-(4-pyridyl)isoxazole] | 52.9
50.5 | Cc1ccc(F)c(-c2noc(NC(=O)CCc3cccc(Cl)c3)c2-c2ccncc2)c1 [Example 117, 5-[(3-Chlorophenyl)propionylamino]-3-(2-fluoro-5-methylphenyl)-4-(4-pyridyl)isoxazole] | 58.1
58.0 | Cc1cc(-c2noc(NC(=O)Cc3ccccc3)c2-c2ccncc2)ccc1F [Example 123, 3-(4-Fluoro-3-methylphenyl)-5-(phenylacetylamino)-4-(4-pyridyl)-isoxazole] | 78.1
59.7 | Cc1cc(-c2noc(NC(=O)Cc3ccccc3Cl)c2-c2ccncc2)ccc1F [Example 124, 5-[(2-Chlorophenyl)acetylamino]-3-(4-fluoro-3-methylphenyl)-4-(4-pyridyl)isoxazole] | 85.2
20.1 | Cc1cc(-c2noc(NC(=O)CCc3ccccc3)c2-c2ccncc2)ccc1F [Example 125, 3-(4-Fluoro-3-methylphenyl)-5-(3-phenylpropionylamino)-4-(4-pyridyl)isoxazole] | 66
